The values that follow come from US20260035696A1, “COMBINATION TREATMENT FOR CANCER” (THE UNIVERSITY OF CHICAGO, priority 2022, published 2026).

Structures are written as SMILES.

The test has as its system IκBα phosphorylation and nuclear RELA in 3×KD BM-MDSCs. Put plainly: Immunoblot of NF-κB signaling in 3×KD BM-MDSCs co-cultured with LPS. It is filed as cell-based, mouse. The settings on record: 3×KD (Adrb2, Metrnl, Smpdl3b) BM-MDSCs, LPS 5 min. The text has this: FIGS. 15A-15I show YTHDF2 degrades Adrb2, Metrnl, and Smpdl3b transcripts and thereby activates NF-κB signaling in MDSCs. (FIG. 15A) MDSCs were sorted from MC38 tumors in WT, WT+IR, Ythdf2-cKO, Ythdf2-cKO+IR mice and subjected to qPCR analysis of Adrb2, Metrnl and Smpdl3b mRNA level. (FIG. 15B) Graphs showing enrichment of Adrb2, Metrnl and Smpdl3b mRNA in the YTHDF2-immunoprecipitated RNA fraction of bone marrow-derived MDSCs, determined by RIP-qPCR. (FIG. 15C) MDSCs were sorted from bone marrow-derived cells from WT and Ythdf2-cKO mice and were treated with actinomycin D. mRNA was collected at indicated time points after treatment and mRNA levels of Adrb2, Metrnl and Smpdl3b were measured by RT-qPCR. […] Three days after IR, the number of tumor-infiltrating CD45.1^+CD11b^+Ly6C^hi cells was determined. […] The attached cells on the transwell membrane were visualized under a light microscope and quantified. […] Three days after IR, the number of tumor-infiltrating Ccr2^+CD11b^+Ly6C^hi cells was determined. […]
FIGS. 29A-29M show YTHDF2 degrades Adrb2, Metrnl, and Smpdl3b transcripts and thereby activates NF-κB signaling in MDSCs. […] P values were calculated by a nonparametric Wilcoxon-Mann-Whitney test. […] Metrnl and Smpdl3b mRNA in the YTHDF2-immunoprecipitated RNA fraction of bone marrow-derived MDSCs, determined by RIP-qPCR. […]
Background: In western blotting, separated proteins are transferred to a membrane and probed.

In the case of `Cc1ccc(S(=O)(=O)/C=C/C#N)cc1` [BAY 11-7082], the “increase of IκBα phosphorylation and nuclear localization of RELA in knockdown MDSCs” value is given as “prevented this increase”.
